Like-named read-outs stand apart in the source and are kept apart here.
Experiments:
Assay type in all cases: cell-based
[1] = system: asexual blood stage P. falciparum NF54 (drug sensitive); assay: SYBR Green I proliferation assay, asexual blood stage Pf NF54; details: Plasmodium falciparum, read-out: IC50 NF54
Protocol: In vitro cultivation of asexual and gametocyte P. falciparum parasites: P. falciparum asexual blood stage parasites were cultivated in human erythrocytes in RPMI-1640 media supplemented with AlbuMax II under sterile conditions and in a hypoxic environment (90% N2, 5% CO2, and 5% O2) at 37°C as described previously ([Coertzen et al., 2018]; [Wong et al., 2019]). Gametocytes were produced from asexual blood stage parasites in a stage-specific manner through induction of cellular stress as described previously ([Reader et al., 2015]; [Coertzen et al., 2018]; [Wong et al., 2019]; [Reader et al., 2022]).
DHA, artesunate, artemether, chloroquine (CQ), and methylene blue (MB) were used as reference drugs. All assay conditions are as previously described ([Coertzen et al., 2018]; [Wong et al., 2019]). […] Dose-responses were determined using a 2-fold serial drug dilution on in vitro 95% ring-stage intraerythrocytic Pf parasites (1% parasitemia, 1% hematocrit) at 37°C under 90% N2, 5% CO2, and 5% O2 atmospheric conditions, detecting SYBR green I fluorescence as a marker for parasite proliferation following a 96 h drug treatment ([Smilkstein et al., 2004]; [Verlinden et al., 2011]). Activity against the Pf drug-sensitive NF54 strain and the multi drug-resistant K1 (resistant to CQ, quinine, pyrimethamine, and cycloguanil), and W2 (resistant to CQ, quinine, pyrimethamine, and cycloguanil) strains was evaluated. […] Data analysis was performed using GraphPad Prism (version 6) software, intra-assay variability was monitored with Z-factors, and acceptable inter-assay reproducibility was determined from the percent coefficient of variation (CV) ([Reader et al., 2015]). […]
Activity was determined using the SYBR Green I based fluorescence assay on asexual blood stages of the NF54 (drug sensitive), K1 and W2 (drug resistant) strains of P. falciparum. […] Also included in Table 1 for direct comparison of activities against celastrol are data for the internal reference standards MB and artemisone recorded at the same time as for celastrol. […]

[2] = system: LO2 human normal hepatocytes; assay: MTT cytotoxicity assay LO2; details: Hepatocyte, 72 h, read-out: IC50 LO2
Protocol: Proliferative and non-proliferative mammalian cell lines: human liver and lung cancer cell lines HepG2 and A549, and immortalized normal liver LO2 and lung BEAS-2B cells were purchased from ATCC (Manassas, VA, United States). Cells were cultured in RPMI-1640 medium supplemented with 10% fetal bovine serum and antibiotics penicillin (50 U/mL) and streptomycin (50 μg/ml; Invitrogen, United Kingdom). All cells were incubated at 37°C in a 5% humidified CO2 incubator.
All test compounds were dissolved in DMSO at a final concentration of 50 mM and stored at −20°C before use. Cytotoxicity was assessed with A549, HepG2, BEAS-2B and LO2 cells. The MTT assay with 3-(4,5-dimethylthiazole-2yl)-2,5-diphenyltetrazolium bromide (5 mg/ml) was performed as previously described ([Ng et al., 2022]). Briefly, 4 × 10^3 cells per well were seeded in 96-well plates before drug treatment. After overnight cell culture, the cells were exposed to different concentrations of selected compounds (0.19–100 μM) for 72 h. Cells without drug treatment were used as control. Next, 10 μl of the MTT solution was added to each well and incubated at 37°C for another 4 h. Solubilization buffer (100 μl) was then added (10 mM HCl in a solution of 10% of SDS) and incubated overnight. The absorbance A at 570 nm was measured on the next day. The percentage of cell viability was calculated using the following formula: Cell viability (%) = Atreated/Acontrol × 100. Dose response curves for all assays are given in the Supplementary Figures S3–S6.
Cytotoxicity was assessed for each of artemisinin, DHA and artemether, and the amino-artemisinins artemiside and artemisone, and celastrol against A549 human lung carcinoma, BEAS-2B non-tumorigenic human bronchial epithelium, HepG2 liver hepatocellular carcinoma and LO2 human normal hepatocytes using the MTT assay ([Ng et al., 2022]). Data are presented in Table 4, and dose response curves are given in the Supplementary Figures S3–S6.

[3] = system: LO2 human normal hepatocytes; assay: Cytotoxicity drug combination (isobole) assay LO2
Protocol: For the drug combination inhibitory assays, six drug preparations, of which four comprised combinations of either artemiside or artemisone with celastrol in a fixed ratio of 80:20, 60:40, 40:60, and 20:80 were prepared and screened against HepG2 liver hepatocellular carcinoma and LO2 human normal hepatocytes respectively. Two of these six preparations employed each of artemiside, artemisone or celastrol alone at a concentration approximately 5–7 times higher than the IC50 of the individual drug as presented in Table 4. […] Thus, six combinations for artemiside (µM) and celastrol (µM) prepared were 500:0, 400:4, 300:8, 200:12, 100:16, and 0:20, respectively.
As above for the malaria combination assays, a mean ΣFIC<1.0 represents a synergistic interaction, >1.3 represents an antagonistic interaction and ΣFIC = 1 represents an indifferent or additive interaction. Additivity, synergism and antagonism were also be established from the linear plots constructed from the FIC values of each of the drugs. A concave hyperbolic plot indicates synergism, a convex hyperbolic plot indicates an antagonistic interaction, and a straight line indicates an additive interaction. Isobole analysis of the combinations of each of artemiside and artemisone in combination with celastrol was performed against HepG2 and LO2 cells respectively. In Figure 5 is presented the isoboles for each drug combination.
Next, combinations of each of artemiside and artemisone with celastrol were examined, according to the method used to establish additivity/synergism described above. […] Against the normal hepatocyte LO2 cell line, whilst the interaction of artemisone with celastrol was synergistic, that of artemiside was additive. Synergism and additivity were also evident from the linear plots determined from the FIC values of each of the drugs (Table 5 and Figure 6). Thus, synergism is confirmed for combinations of the amino-artemisinins with celastrol against the HepG2 carcinoma cell line, and for artemisone-celastrol against human normal hepatocyte LO2.

[4] = artemisone:celastrol drug ratio 20:80, LO2
[5] = artemisone:celastrol drug ratio 40:60, LO2
[6] = artemisone:celastrol drug ratio 60:40, LO2
[7] = artemisone:celastrol drug ratio 80:20, LO2

Row | SMILES | IC50 ([1]; NF54, asexual blood stage, SYBR Green I, 96 h, mean ± SEM, this study) [µM] | IC50 ([2]; MTT, ± SD) [µM] | FIC [3, 4] | FIC [3, 5] | FIC [3, 6] | FIC [3, 7] | IC50 ([1]; NF54, 96 h) [µM] | IC50 [2] [µM] | FIC ([3]; artemiside:celastrol drug ratio 20:80, LO2) | FIC ([3]; artemiside:celastrol drug ratio 40:60, LO2) | FIC ([3]; artemiside:celastrol drug ratio 60:40, LO2) | FIC ([3]; artemiside:celastrol drug ratio 80:20, LO2)
1 | C[C@H]1[C@H](N2CCS(=O)(=O)CC2)O[C@@H]2O[C@@]3(C)CC[C@H]4[C@H](C)CC[C@@H]1[C@@]24OO3 [Artemisone, artemisone] | 0.00232 ± 0.00076 | > 100 | 0.18 | 0.28 | 0.47 | 0.99 | – | – | – | – | – | –
2 | CC1=C(O)C(=O)C=C2C1=CC=C1[C@@]2(C)CC[C@@]2(C)[C@@H]3C[C@](C)(C(=O)O)CC[C@]3(C)CC[C@]12C [Celastrol, celastrol] | – | – | 0.7 | 0.4 | 0.29 | 0.23 | 0.82 ± 0.19 | 0.78 ± 0.2 | 1.2 | 1.56 | 1.03 | 0.48

Source: publication PMC9479156 (Frontiers in Pharmacology, 2022)
